Non-standard residues stand in square brackets, D forms with d. Residues, ends and D or L forms follow the SMILES beside them. Cha = N[C@@H](CC1CCCCC1)C(=O)O
Key:
Conditions in all cases: read-out: Log 1/IC50 (converted)
[1] = species: Cavia porcellus; test: Inhibitory activity for contractions of electrically stimulated guinea pig ileum was determined; assay type: functional, organism-based
[2] = target: Delta-type opioid receptor (Mus musculus, UniProt P32300); test: (§1) Inhibitory activity contractions of electrically stimulated mouse vas deferens was determined; assay type: functional, tissue-based
[3] = species: Mus musculus; test: as §1; assay type: functional, organism-based

Delta-type opioid receptor, sequence (P32300 whole entry): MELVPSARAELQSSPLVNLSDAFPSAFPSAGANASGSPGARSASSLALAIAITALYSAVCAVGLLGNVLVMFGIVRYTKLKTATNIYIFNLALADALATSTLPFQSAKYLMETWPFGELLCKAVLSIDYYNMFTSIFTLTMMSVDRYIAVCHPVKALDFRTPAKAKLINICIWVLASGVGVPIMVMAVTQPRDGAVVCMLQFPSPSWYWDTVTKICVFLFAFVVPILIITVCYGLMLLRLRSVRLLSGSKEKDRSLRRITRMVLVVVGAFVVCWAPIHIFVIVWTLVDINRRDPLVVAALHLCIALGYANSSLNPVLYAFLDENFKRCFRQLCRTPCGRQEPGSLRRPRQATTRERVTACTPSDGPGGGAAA

SMILES | IC50 [1] | IC50 [2] | IC50 [3]
C[C@H](NC(=O)[C@@H](N)Cc1ccc(O)cc1)C(=O)NCC(=O)N[C@@H](Cc1ccc([N+](=O)[O-])cc1)C(=O)N[C@@H](CC12CC3CC(CC(C3)C1)C2)C(N)=O | 3.8 nM | 20.4 nM | 
COc1ccc(C[C@H](N)C(=O)N[C@@H](C)C(=O)NCC(=O)N[C@@H](Cc2ccc([N+](=O)[O-])cc2)C(=O)N[C@@H](CCSC)C(N)=O)cc1 | 2.29 nM | 3.16 nM | 
C[C@H](NC(=O)[C@@H](N)Cc1ccc(O)cc1)C(=O)NCC(=O)N[C@@H](Cc1ccc([N+](=O)[O-])cc1)C(=O)N[C@@H](CCC(C)(C)C)C(N)=O | 1.91 nM |  | 
CC(C)C[C@H](NC(=O)[C@H](Cc1ccccc1)NC(=O)CNC(=O)[C@H](C)NC(=O)[C@@H](N)Cc1ccc(O)cc1)C(N)=O | 11.2 nM |  | 9.55 nM
CC(C)C[C@H](NC(=O)[C@H](CC1CCCCC1)NC(=O)CNC(=O)[C@H](C)NC(=O)[C@@H](N)Cc1ccc(O)cc1)C(N)=O (HELM PEPTIDE1{Y.A.G.[Cha].L.[am]}$$$$V2.0) | 91.2 nM |  | 
COc1ccc(C[C@H](N)C(=O)N[C@@H](C)C(=O)NCC(=O)N[C@@H](CC2CCCCC2)C(=O)N[C@@H](CCSC)C(N)=O)cc1 (H-Y(Me)AG[Cha]M-NH2) | 72.4 nM |  | 
C[C@H](NC(=O)[C@@H](N)Cc1ccc(O)cc1)C(=O)NCC(=O)N[C@@H](Cc1ccccc1)C(=O)N[C@H](C(N)=O)C(C)(C)C (HELM PEPTIDE1{Y.A.G.F.[CC(C)(C)[C@H](N[*:1])C(=O)[*:2]].[am]}$$$$V2.0) | 11.7 nM | 9.77 nM | 
C[C@H](NC(=O)[C@@H](N)Cc1ccc(O)cc1)C(=O)NCC(=O)N[C@@H](Cc1ccccc1)C(=O)N[C@@H](CC12CC3CC(CC(C3)C1)C2)C(N)=O (HELM PEPTIDE1{Y.A.G.F.[O=C([C@H](CC12CC3CC(CC(C3)C1)C2)N[*:1])[*:2]].[am]}$$$$V2.0) | 6.03 nM | 50.1 nM | 
CSCC[C@H](NC(=O)[C@H](Cc1ccccc1)NC(=O)CNC(=O)[C@H](C)NC(=O)[C@@H](N)Cc1ccc(O)cc1)C(N)=O | 11.5 nM |  | 
CC(C)C[C@H](NC(=O)[C@H](Cc1ccc([N+](=O)[O-])cc1)NC(=O)CNC(=O)[C@H](C)NC(=O)[C@@H](N)Cc1ccc(O)cc1)C(N)=O | 3.16 nM |  | 
CC(C)C[C@H](NC(=O)[C@H](CC12CC3CC(CC(C3)C1)C2)NC(=O)CNC(=O)[C@H](C)NC(=O)[C@@H](N)Cc1ccc(O)cc1)C(N)=O (HELM PEPTIDE1{Y.A.G.[O=C([C@H](CC12CC3CC(CC(C3)C1)C2)N[*:1])[*:2]].L.[am]}$$$$V2.0) | 1000 nM | 2950 nM | 
